Source: patent US12258328B2, “6-membered heteroaryl-containing aminopyridine compounds as EGFR inhibitors” (YUHAN CORPORATION, priority 2021, dated 2025)
Read-outs that look alike come from different tables or passages of the source.

Key:
EGFR L858R/C797S = EGFR L858R/C797S (Homo sapiens, UniProt P00533, C797S/L858R); assay: Biochemical EGFR kinase assay (Lance Ultra TR-FRET), double mutant L858R/C797S
Method in brief: (§1)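 Enzyme reactions lasted 1 hour at room temperature with test compounds between 0.003 and 10 μM, followed by 10 mM EDTA quench.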

EGFR wildtype = EGFR wildtype (Homo sapiens, UniProt P00533); assay: Biochemical EGFR kinase assay (Lance Ultra TR-FRET), wildtype
Method in brief: as §1

EGFR del19/T790M/C797S = EGFR del19/T790M/C797S (Homo sapiens, UniProt P00533, C797S/DEL746-750/T790M); assay: Biochemical EGFR kinase assay (Lance Ultra TR-FRET), triple mutant del19/T790M/C797S
Chain of EGFR del19/T790M/C797S (P00533 with tags, fused parts or gaps DEL746-750/T790M/C797S): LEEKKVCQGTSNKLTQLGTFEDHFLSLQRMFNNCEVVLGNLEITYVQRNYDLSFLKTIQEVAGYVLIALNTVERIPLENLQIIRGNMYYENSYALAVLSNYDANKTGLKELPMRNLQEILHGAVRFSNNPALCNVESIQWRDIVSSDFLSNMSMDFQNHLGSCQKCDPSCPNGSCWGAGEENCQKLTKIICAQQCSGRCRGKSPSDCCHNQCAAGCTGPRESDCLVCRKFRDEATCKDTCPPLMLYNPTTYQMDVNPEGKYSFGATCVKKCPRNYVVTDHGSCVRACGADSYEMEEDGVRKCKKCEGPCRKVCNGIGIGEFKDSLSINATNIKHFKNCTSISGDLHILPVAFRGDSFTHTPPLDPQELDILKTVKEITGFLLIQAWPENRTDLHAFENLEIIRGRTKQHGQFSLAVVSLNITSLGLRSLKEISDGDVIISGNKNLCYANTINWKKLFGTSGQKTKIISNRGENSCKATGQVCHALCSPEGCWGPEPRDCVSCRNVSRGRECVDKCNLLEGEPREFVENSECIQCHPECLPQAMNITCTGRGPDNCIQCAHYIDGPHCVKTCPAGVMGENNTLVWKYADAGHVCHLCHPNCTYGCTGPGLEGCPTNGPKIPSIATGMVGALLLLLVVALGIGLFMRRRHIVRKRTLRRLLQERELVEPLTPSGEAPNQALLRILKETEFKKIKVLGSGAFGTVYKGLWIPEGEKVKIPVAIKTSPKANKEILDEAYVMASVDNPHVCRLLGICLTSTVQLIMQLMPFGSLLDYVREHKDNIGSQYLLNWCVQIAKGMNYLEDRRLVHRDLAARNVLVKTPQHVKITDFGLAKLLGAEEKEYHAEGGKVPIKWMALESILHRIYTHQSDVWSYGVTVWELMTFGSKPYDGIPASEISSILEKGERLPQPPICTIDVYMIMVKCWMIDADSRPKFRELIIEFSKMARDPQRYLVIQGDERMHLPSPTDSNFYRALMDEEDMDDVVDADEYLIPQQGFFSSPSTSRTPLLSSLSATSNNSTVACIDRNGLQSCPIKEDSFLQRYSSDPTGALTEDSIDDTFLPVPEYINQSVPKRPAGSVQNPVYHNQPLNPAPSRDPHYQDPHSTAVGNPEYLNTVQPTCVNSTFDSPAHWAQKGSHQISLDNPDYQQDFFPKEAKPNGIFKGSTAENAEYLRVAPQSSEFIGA
Method in brief: as §1

EGFR L858R/T790M/C797S = EGFR L858R/T790M/C797S (Homo sapiens, UniProt P00533, C797S/L858R/T790M); assay: Biochemical EGFR kinase assay (Lance Ultra TR-FRET), triple mutant L858R/T790M/C797S
Chain of EGFR L858R/T790M/C797S (P00533 25-1210 T790M/C797S/L858R): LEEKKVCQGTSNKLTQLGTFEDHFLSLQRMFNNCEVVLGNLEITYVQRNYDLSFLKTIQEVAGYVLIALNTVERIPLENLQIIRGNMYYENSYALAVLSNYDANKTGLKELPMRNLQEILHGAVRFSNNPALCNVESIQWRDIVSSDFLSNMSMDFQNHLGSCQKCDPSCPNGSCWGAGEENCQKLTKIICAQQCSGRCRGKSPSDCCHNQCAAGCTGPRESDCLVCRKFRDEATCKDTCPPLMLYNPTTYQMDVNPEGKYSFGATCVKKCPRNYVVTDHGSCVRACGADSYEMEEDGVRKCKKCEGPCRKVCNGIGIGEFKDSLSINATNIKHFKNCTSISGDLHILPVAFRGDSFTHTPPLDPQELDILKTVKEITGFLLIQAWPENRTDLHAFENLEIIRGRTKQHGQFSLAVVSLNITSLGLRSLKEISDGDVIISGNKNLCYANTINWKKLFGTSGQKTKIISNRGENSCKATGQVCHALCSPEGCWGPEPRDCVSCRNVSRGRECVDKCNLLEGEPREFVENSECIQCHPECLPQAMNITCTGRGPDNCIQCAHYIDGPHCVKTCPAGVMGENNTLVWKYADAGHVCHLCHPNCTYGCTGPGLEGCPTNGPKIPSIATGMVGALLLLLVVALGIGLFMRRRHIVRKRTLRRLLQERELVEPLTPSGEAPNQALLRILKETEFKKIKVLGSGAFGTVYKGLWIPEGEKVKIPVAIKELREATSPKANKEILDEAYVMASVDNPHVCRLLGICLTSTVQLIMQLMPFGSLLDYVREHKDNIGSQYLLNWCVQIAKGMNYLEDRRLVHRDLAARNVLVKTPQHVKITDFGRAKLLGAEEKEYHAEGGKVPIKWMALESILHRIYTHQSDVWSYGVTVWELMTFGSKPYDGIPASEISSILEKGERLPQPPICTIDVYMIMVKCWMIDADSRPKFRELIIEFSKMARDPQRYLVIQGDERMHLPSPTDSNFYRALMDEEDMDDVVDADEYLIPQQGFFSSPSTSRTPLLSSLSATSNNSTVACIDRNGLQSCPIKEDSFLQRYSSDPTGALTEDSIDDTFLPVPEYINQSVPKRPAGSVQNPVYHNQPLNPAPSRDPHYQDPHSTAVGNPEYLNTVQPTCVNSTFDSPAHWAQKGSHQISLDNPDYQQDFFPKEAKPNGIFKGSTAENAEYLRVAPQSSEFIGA
Method in brief: as §1

EGFR del19/C797S = EGFR del19/C797S (Homo sapiens, UniProt P00533, C797S/DEL746-750); assay: Biochemical EGFR kinase assay (Lance Ultra TR-FRET), double mutant del19/C797S
Chain of EGFR del19/C797S (P00533 with tags, fused parts or gaps DEL746-750/C797S): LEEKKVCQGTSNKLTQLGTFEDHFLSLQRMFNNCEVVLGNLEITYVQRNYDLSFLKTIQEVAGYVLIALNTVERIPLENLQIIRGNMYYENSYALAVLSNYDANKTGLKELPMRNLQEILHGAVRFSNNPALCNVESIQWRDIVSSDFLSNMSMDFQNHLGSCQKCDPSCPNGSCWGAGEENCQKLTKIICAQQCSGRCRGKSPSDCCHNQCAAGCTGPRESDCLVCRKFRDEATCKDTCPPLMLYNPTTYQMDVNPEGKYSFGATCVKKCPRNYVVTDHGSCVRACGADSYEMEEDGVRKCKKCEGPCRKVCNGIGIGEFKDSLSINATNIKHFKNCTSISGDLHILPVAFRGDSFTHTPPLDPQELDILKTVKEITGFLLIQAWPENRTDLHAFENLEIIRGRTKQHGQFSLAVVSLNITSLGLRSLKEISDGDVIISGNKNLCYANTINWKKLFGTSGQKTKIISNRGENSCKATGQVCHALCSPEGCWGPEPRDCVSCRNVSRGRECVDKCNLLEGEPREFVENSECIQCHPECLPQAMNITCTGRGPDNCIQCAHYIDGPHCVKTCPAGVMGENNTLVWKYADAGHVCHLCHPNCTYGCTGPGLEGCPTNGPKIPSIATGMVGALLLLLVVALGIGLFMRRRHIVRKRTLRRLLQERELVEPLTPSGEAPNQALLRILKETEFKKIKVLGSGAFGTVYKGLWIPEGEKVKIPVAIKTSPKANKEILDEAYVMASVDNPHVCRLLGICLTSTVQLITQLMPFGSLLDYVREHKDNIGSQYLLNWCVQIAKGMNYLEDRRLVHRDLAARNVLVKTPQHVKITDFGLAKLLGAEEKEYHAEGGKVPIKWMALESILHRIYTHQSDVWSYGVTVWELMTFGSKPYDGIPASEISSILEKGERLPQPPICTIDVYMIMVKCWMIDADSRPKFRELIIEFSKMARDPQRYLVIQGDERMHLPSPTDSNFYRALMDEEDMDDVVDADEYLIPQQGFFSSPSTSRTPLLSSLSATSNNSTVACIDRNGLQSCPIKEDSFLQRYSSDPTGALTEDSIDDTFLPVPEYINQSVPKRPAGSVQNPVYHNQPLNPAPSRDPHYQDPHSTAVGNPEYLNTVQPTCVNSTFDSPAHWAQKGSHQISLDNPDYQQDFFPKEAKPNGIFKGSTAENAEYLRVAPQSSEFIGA
Method in brief: as §1

[1] = ATP at Km, read-out: IC50 L858R/C797S, Km ATP
[2] = ATP at Km, read-out: IC50 WT, Km ATP
[3] = ATP at Km, read-out: IC50 del19/T790M/C797S, Km ATP
[4] = ATP at Km, read-out: IC50 L858R/T790M/C797S, Km ATP
[5] = ATP at Km, read-out: IC50 del19/C797S, Km ATP
[6] = Km ATP, read-out: IC50 L858R/C797S (nM) Km ATP
[7] = Km ATP, read-out: IC50 WT (nM) Km ATP
[8] = Km ATP, read-out: IC50 del19/T790M/C797S (nM) Km ATP
[9] = Km ATP, read-out: IC50 L858R/T790M/C797S (nM) Km ATP
[10] = Km ATP, read-out: IC50 del19/C797S (nM) Km ATP
[11] = IC50 L858R/C797S (nM) 100 μM ATP, 100 μM ATP
[12] = IC50 WT (nM) 100 μM ATP, 100 μM ATP
[13] = IC50 del19/T790M/C797S (nM) 100 μM ATP, 100 μM ATP
[14] = IC50 L858R/T790M/C797S (nM) 100 μM ATP, 100 μM ATP
[15] = IC50 del19/C797S (nM) 100 μM ATP, 100 μM ATP

Chain of EGFR L858R/C797S (P00533 25-1210 C797S/L858R): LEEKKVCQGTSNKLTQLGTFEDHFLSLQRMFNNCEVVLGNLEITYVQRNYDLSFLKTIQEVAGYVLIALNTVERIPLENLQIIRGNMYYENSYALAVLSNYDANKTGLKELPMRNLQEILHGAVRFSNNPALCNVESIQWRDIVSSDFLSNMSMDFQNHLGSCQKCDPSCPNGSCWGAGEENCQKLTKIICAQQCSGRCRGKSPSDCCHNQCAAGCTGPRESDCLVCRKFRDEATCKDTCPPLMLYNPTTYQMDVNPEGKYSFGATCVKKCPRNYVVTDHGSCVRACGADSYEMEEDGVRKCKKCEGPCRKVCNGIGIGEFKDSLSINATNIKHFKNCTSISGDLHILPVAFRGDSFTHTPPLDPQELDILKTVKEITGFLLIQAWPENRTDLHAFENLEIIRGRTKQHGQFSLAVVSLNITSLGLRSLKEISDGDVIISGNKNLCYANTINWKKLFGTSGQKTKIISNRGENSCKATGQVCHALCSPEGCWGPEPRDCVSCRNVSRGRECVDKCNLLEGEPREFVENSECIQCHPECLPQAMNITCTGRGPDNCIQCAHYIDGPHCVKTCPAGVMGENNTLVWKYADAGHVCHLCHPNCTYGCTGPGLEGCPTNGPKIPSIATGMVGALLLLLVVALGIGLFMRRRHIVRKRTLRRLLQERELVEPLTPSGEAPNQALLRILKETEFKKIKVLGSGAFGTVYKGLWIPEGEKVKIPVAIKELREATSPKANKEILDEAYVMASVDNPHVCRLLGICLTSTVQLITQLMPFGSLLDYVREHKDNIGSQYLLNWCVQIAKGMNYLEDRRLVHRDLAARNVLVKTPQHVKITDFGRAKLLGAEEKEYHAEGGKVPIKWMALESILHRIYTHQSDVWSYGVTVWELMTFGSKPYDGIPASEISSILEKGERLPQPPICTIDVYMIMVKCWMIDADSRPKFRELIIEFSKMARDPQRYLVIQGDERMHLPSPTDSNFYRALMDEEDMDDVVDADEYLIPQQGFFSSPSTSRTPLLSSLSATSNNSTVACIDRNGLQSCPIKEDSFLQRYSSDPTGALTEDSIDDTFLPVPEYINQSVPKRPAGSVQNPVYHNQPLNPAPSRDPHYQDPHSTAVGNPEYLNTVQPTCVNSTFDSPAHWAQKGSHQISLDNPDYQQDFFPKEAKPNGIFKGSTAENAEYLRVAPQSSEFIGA

`C[C@]1(O)CC[C@@H](Nc2cc(Nc3ccnc(-c4cnn(S(=O)(=O)C5CC5)c4)n3)ncc2-c2ccc(C(F)(F)F)c(F)n2)CC1` [Example 181, (1s,4s)-4-((6′-((2-(1-(Cyclopropylsulfonyl)-1H-pyrazol-4-yl)pyrimidin-4-yl)amino)-6-fluoro-5-(trifluoromethyl)-[2,3′-bipyridin]-4′-yl)amino)-1-methylcyclohexan-1-ol] showed an IC50 (EGFR L858R/C797S; [1]) of 19.7 nM, an IC50 (EGFR L858R/C797S; IC50 L858R/C797S, 100 μM ATP) of 157 nM and an IC50 (EGFR wildtype; [2]) of 129 nM. For the same compound, the IC50 (EGFR wildtype; IC50 WT, 100 μM ATP) was > 10000 nM, the IC50 (EGFR del19/T790M/C797S; [3]) was 5.5 nM and the IC50 (EGFR del19/T790M/C797S; IC50 del19/T790M/C797S, 100 μM ATP) was 10 nM. It also gave an IC50 (EGFR L858R/T790M/C797S; [4]) of 2.2 nM, an IC50 (EGFR L858R/T790M/C797S; IC50 L858R/T790M/C797S, 100 μM ATP) of 20.3 nM and an IC50 (EGFR del19/C797S; [5]) of 16.2 nM. For the same compound, the IC50 (EGFR del19/C797S; IC50 del19/C797S, 100 μM ATP) was 41.5 nM.
In the case of `CC(C)(O)c1ccc(-c2cnc(Nc3ccnc(-c4cnn(S(=O)(=O)C5CC5)c4)n3)cc2NC2CCN(CC(F)F)CC2)nc1` [Example 178, 2-(6′-((2-(1-(Cyclopropylsulfonyl)-1H-pyrazol-4-yl)pyrimidin-4-yl)amino)-4′-((1-(2,2-difluoroethyl)piperidin-4-yl)amino)-[2,3′-bipyridin]-5-yl)propan-2-ol], the IC50 (EGFR L858R/C797S; [1]) is reported as 4.7 nM, the IC50 (EGFR wildtype; [2]) is reported as 96.5 nM and the IC50 (EGFR del19/T790M/C797S; [3]) is reported as 0.7 nM. The IC50 (EGFR L858R/T790M/C797S; [4]) was 1 nM and the IC50 (EGFR del19/C797S; [5]) was 2.6 nM.
In the case of `CN1CCC(Oc2cnc(-c3cnc(Nc4ccnc(-c5cnn(S(=O)(=O)C6CC6)c5)n4)cc3N[C@H]3CC[C@@H](C(C)(C)O)CC3)cn2)CC1` [Example 147, 2-((1s,4s)-4-((2-((2-(1-(Cyclopropylsulfonyl)-1H-pyrazol-4-yl)pyrimidin-4-yl)amino)-5-(5-((1-methylpiperidin-4-yl)oxy)pyrazin-2-yl)pyridin-4-yl)amino)cyclohexyl)propan-2-ol], the IC50 (EGFR L858R/C797S; [6]) is reported as 0.1 nM, the IC50 (EGFR wildtype; [7]) is reported as 2.3 nM and the IC50 (EGFR del19/T790M/C797S; [8]) is reported as 0.3 nM. The IC50 (EGFR L858R/T790M/C797S; [9]) was 0.1 nM and the IC50 (EGFR del19/C797S; [10]) was 0.4 nM.
Work on `O=S(=O)(C1CC1)n1cc(-c2nccc(Nc3cc(N[C@H]4CC[C@@H](CO)CC4)c(-c4cc(C(F)F)ccn4)cn3)n2)cn1` [Example 77, ((1s,4s)-4-((6′-((2-(1-(Cyclopropylsulfonyl)-1H-pyrazol-4-yl)pyrimidin-4-yl)amino)-4-(difluoromethyl)-[2,3′-bipyridin]-4′-yl)amino)cyclohexyl)methanol] yielded an IC50 (EGFR L858R/C797S; [11]) of 13 nM, an IC50 (EGFR L858R/C797S; [6]) of 4.1 nM and an IC50 (EGFR wildtype; [12]) of 1560 nM. For the same compound, the IC50 (EGFR wildtype; [7]) was 4 nM, the IC50 (EGFR del19/T790M/C797S; [13]) was 1.7 nM and the IC50 (EGFR del19/T790M/C797S; [8]) was 2.1 nM. For the same compound, the IC50 (EGFR L858R/T790M/C797S; [14]) was 1.4 nM, the IC50 (EGFR L858R/T790M/C797S; [9]) was 1.1 nM and the IC50 (EGFR del19/C797S; [15]) was 2.3 nM. The IC50 (EGFR del19/C797S; [10]) was 2.2 nM.
For `C[C@]1(O)CC[C@@H](Nc2cc(Nc3ccnc(-c4cnn(S(=O)(=O)C5CC5)c4)n3)ncc2-c2ccc(C#N)cn2)CC1` [Example 7, 6′-((2-(1-(Cyclopropylsulfonyl)-1H-pyrazol-4-yl)pyrimidin-4-yl)amino)-4′-(((1s,4s)-4-hydroxy-4-methylcyclohexyl)amino)-[2,3′-bipyridine]-5-carbonitrile], the IC50 (EGFR L858R/C797S; [11]) was 12.4 nM, the IC50 (EGFR L858R/C797S; [6]) was 0.6 nM and the IC50 (EGFR wildtype; [12]) was > 10000 nM. It also gave an IC50 (EGFR wildtype; [7]) of 3 nM, an IC50 (EGFR del19/T790M/C797S; [13]) of 0.2 nM and an IC50 (EGFR del19/T790M/C797S; [8]) of 0.4 nM. It also gave an IC50 (EGFR L858R/T790M/C797S; [14]) of 0.2 nM, an IC50 (EGFR L858R/T790M/C797S; [9]) of 0.1 nM and an IC50 (EGFR del19/C797S; [10]) of 0.5 nM.
`C[C@]1(O)CC[C@@H](Nc2cc(Nc3ccnc(-c4cnn(S(=O)(=O)C5CC5)c4)n3)ncc2-c2ccc(N3CC4(COC4)C3)nn2)CC1` [Example 67, (1s,4s)-4-((5-(6-(2-Oxa-6-azaspiro[3.3]heptan-6-yl)pyridazin-3-yl)-2-((2-(1-(cyclopropylsulfonyl)-1H-pyrazol-4-yl)pyrimidin-4-yl)amino)pyridin-4-yl)amino)-1-methylcyclohexan-1-ol] was tested, and the IC50 (EGFR L858R/C797S; [11]) was 4.5 nM, the IC50 (EGFR L858R/C797S; [6]) was 0.8 nM and the IC50 (EGFR wildtype; [12]) was > 10000 nM. For the same compound, the IC50 (EGFR wildtype; [7]) was 3.7 nM, the IC50 (EGFR del19/T790M/C797S; [13]) was 0.3 nM and the IC50 (EGFR del19/T790M/C797S; [8]) was 0.3 nM. For the same compound, the IC50 (EGFR L858R/T790M/C797S; [14]) was 0.3 nM, the IC50 (EGFR L858R/T790M/C797S; [9]) was 0.1 nM and the IC50 (EGFR del19/C797S; [15]) was 0.5 nM. The IC50 (EGFR del19/C797S; [10]) was 0.5 nM.
